Reference: US11419335B2, “N-arylated analogues and uses thereof” (University of Florida Research Foundation, Incorporated, priority 2016, dated 2022)
Like-named read-outs stand apart in the source and are kept apart here. Marks after values point to notes of the source that are not given here.

Tests used:
[1] = system: methicillin-sensitive Staphylococcus aureus ATCC 29213; experiment: MIC broth microdilution, S. aureus 29213; type: cell-based
Method: (§1) The minimum inhibitory concentration (MIC) for each tested compound was determined by the broth microdilution method as recommended by the Clinical and Laboratory Standards Institute (CLSI). In a 96-well plate, eleven two-fold serial dilutions of each compound were made in a final volume of 100 μL Luria Broth. Each well was inoculated with ˜10^5 bacterial cells at the initial time of incubation, prepared from a fresh log phase culture (OD600 of 0.5 to 1.0 depending on bacterial strain). […] (MIC values were supported by spectrophotometric readings at OD600). DMSO served as our vehicle and negative control in each microdilution MIC assay. DMSO was serially diluted with a top concentration of 1% v/v.
(§2) Each well was inoculated with ˜10^5 bacterial cells at the initial time of incubation, prepared from a fresh log phase culture (OD600 of 0.5 to 1.0 depending on bacterial strain). […] The concentration range tested for each compound during this study was 0.10 to 100 μM. DMSO served as our vehicle and negative control in each microdilution MIC assay. DMSO was serially diluted with a top concentration of 1% v/v. All MIC values were obtained from a minimum of three independent experiments.

[2] = system: Acinetobacter baumannii (ATCC 1794); experiment: MIC broth microdilution, A. baumannii 1794; type: cell-based; conditions: for MIC A. bau. 1794: Table 4; for MIC A. baumannii 1794: Table 1A
Method: (§3) The minimum inhibitory concentration (MIC) for each tested compound was determined by the broth microdilution method as recommended by the Clinical and Laboratory Standards Institute (CLSI). In a 96-well plate, eleven two-fold serial dilutions of each compound were made in a final volume of 100 μL Luria Broth. Each well was inoculated with ˜10^5 bacterial cells at the initial time of incubation, prepared from a fresh log phase culture (OD600 of 0.5 to 1.0 depending on bacterial strain). The MIC was defined as the lowest concentration of compound that prevented bacterial growth after incubating 16 to 18 hours at 37° C. (MIC values were supported by spectrophotometric readings at OD600). DMSO served as our vehicle and negative control in each microdilution MIC assay. DMSO was serially diluted with a top concentration of 1% v/v.
as §3, with “for each compound was” for “for each tested compound was”, “Standards Institute (CLSI).^6 In a” for “Standards Institute (CLSI). In a”, “concentration of test compound that” for “concentration of compound that”, “37° C. The concentration range tested for each compound during this study was 0.10 to 100 μM. DMSO served” for “37° C. (MIC values were supported by spectrophotometric readings at OD600). DMSO served”, “1% v/v. All MIC values were obtained from a minimum of three independent experiments.” for “1% v/v.”

[3] = system: methicillin-resistant Staphylococcus aureus MRSA-2 (clinical isolate); experiment: MIC broth microdilution, MRSA-2; type: cell-based; conditions: for MIC: read-out: MIC MRSA-2
Method: as §3
as §3, with “for each compound was” for “for each tested compound was”, “Standards Institute (CLSI).^6 In a” for “Standards Institute (CLSI). In a”, “concentration of test compound that” for “concentration of compound that”, “37° C. The concentration range tested for each compound during this study was 0.10 to 100 μM. DMSO served” for “37° C. (MIC values were supported by spectrophotometric readings at OD600). DMSO served”, “1% v/v. All MIC values were obtained from a minimum of three independent experiments.” for “1% v/v.”

MRSA BAA-1707 = experiment: MIC broth microdilution, MRSA BAA-1707; type: cell-based, Staphylococcus aureus; conditions: for MIC MRSA 1707: Table 4
Method: as §1, §2

[4] = system: Pseudomonas aeruginosa (PAO1); experiment: MIC broth microdilution, PAO1; type: cell-based
Method: as §3
as §3, with “for each compound was” for “for each tested compound was”, “Standards Institute (CLSI).^6 In a” for “Standards Institute (CLSI). In a”, “concentration of test compound that” for “concentration of compound that”, “37° C. The concentration range tested for each compound during this study was 0.10 to 100 μM. DMSO served” for “37° C. (MIC values were supported by spectrophotometric readings at OD600). DMSO served”, “1% v/v. All MIC values were obtained from a minimum of three independent experiments.” for “1% v/v.”

[5] = system: vancomycin-resistant Enterococcus faecium (VRE strain ATCC 700221); experiment: MIC broth microdilution, VRE 700221; type: cell-based; conditions: for MIC E. faecium VRE 700221: Table 1A; for MIC VRE 700221: Table 4
Method: as §3
as §3, with “for each compound was” for “for each tested compound was”, “Standards Institute (CLSI).^6 In a” for “Standards Institute (CLSI). In a”, “concentration of test compound that” for “concentration of compound that”, “37° C. The concentration range tested for each compound during this study was 0.10 to 100 μM. DMSO served” for “37° C. (MIC values were supported by spectrophotometric readings at OD600). DMSO served”, “1% v/v. All MIC values were obtained from a minimum of three independent experiments.” for “1% v/v.”

[6] = system: methicillin-resistant Staphylococcus epidermidis (MRSE strain ATCC 35984); experiment: MIC broth microdilution, MRSE 35984; type: cell-based; conditions: for MIC S. epidermidis MRSE 35984: Table 1A; for MIC MRSE 35984: Table 4
Method: as §3
as §3, with “for each compound was” for “for each tested compound was”, “Standards Institute (CLSI).^6 In a” for “Standards Institute (CLSI). In a”, “concentration of test compound that” for “concentration of compound that”, “37° C. The concentration range tested for each compound during this study was 0.10 to 100 μM. DMSO served” for “37° C. (MIC values were supported by spectrophotometric readings at OD600). DMSO served”, “1% v/v. All MIC values were obtained from a minimum of three independent experiments.” for “1% v/v.”

| Compound | MIC S. aureus 29213 ([1]; Table 1B) | MIC S. aureus 29213 ([1]; Table 3) | MIC A. bau. 1794 [2] | MIC MRSA-2 ([3]; Table 1B) | MIC MRSA-2 ([3]; Table 3) | MIC MRSA-2 ([3]; Table 4) | MIC MRSA BAA-1707 (MRSA BAA-1707; Table 1B) | MIC MRSA BAA-1707 (MRSA BAA-1707; Table 3) | MIC MRSA 1707 (MRSA BAA-1707) | MIC PAO1 ([4]; Table 4) | MIC ([3]; Table 1B) | MIC ([3]; Table 3) | MIC E. faecium VRE 700221 [5] | MIC VRE 700221 [5] | MIC A. baumannii 1794 [2] | MIC MRSA-2 ([3]; Table 1A) | MIC S. epidermidis MRSE 35984 [6] | MIC MRSE 35984 [6] | MIC PAO1 ([4]; Table 1A) | MIC A. baumannii 1794 ([2]; in µM) |
| --- | --- | --- | --- | --- | --- | --- | --- | --- | --- | --- | --- | --- | --- | --- | --- | --- | --- | --- | --- | --- |
| CCCCCCCCCCCCCCCCn1cc[n+](-c2ccc(Oc3ccccc3)cc2)c1C.[Br-] [Compound 5] | 4.69^a μM | 4.69^a μM | 37.5a micromolar | 4.69^a μM | 4.69^a μM | 4.69a micromolar | 4.69^a μM | 4.69^a μM | 4.69a micromolar | >100 µM | – | – | – | – | – | – | – | – | – | – |
| CCCCCCCCCCCCCCCCn1cc[n+](-c2ccc(OC(F)(F)F)cc2)c1C.[Br-] [Compound 7] | 2.35^a μM | 2.35^a μM | 18.8a micromolar | – | – | 3.13 µM | 4.69^a μM | 4.69^a μM | 4.69a micromolar | >100 µM | 3.13 µM | 3.13 µM | – | – | – | – | – | – | – | – |
| C=CC[n+]1ccn(CCCCCCCCCCCCCCCC)c1C.[Br-] [Compound 10] | – | – | 9.38a micromolar | – | – | 2.35a micromolar | – | – | – | >100 µM | – | – | 2.35^a | 2.35a micromolar | 9.38^a | 2.35^a | 0.78 µM | 0.78 µM | > 100 µM | – |
| CCCCCCCCCCCCCCCCn1cc[n+](Cc2ccc(C(C)C)cc2)c1C.[Br-] [Compound 12] | – | – | >100 µM | – | – | 6.25 µM | – | – | – | >100 µM | – | – | 3.13 µM | 3.13 µM | – | 6.25 µM | 2.35^a | 2.35a micromolar | > 100 µM | >100 |
| CCCCCCCCCCCCCCCCn1cc[n+](Cc2ccc(C(C)(C)C)cc2)c1C.[Br-] [Compound 13] | – | – | >100 µM | – | – | 12.5 µM | – | – | – | >100 µM | – | – | 4.69^a | 4.69a micromolar | – | 12.5 µM | 9.38^a | 9.38a micromolar | > 100 µM | >100 |
| CCCCCCCCCCCCCCCCn1cc[n+](Cc2ccc(Br)cc2)c1C.[Br-] [Compound 14] | – | – | >100 µM | – | – | 6.25 µM | – | – | – | >100 µM | – | – | 4.69^a | 4.69a micromolar | – | 6.25 µM | 6.25 µM | 6.25 µM | > 100 µM | >100* |
